Tested on: Botrytis cinerea
Assay: In vitro antifungal activity, 96-well microtiter plates
Format: cell-based
Settings: 25° C., day 3, 1.25 ppm natamycin, 6.25 ppm isopyrazam or both
Protocol: Subsequently, 100 μl of a Botrytis cinerea suspension prepared in PCB medium was used to inoculated each well with 2.5×10^3 spores/ml. […] After incubation of the microtiter plates at 25° C., the in vitro antifungal activity (%) of the individual active ingredients was assessed by calculating the reduction in mould growth observed in the presence of the active ingredient in comparison to the mould growth observed in the absence of the active ingredient. The expected antifungal activity (E in %) of the active ingredient combination was calculated according to the Colby equation (Colby, 1967): […]

## C[C@@H]1C/C=C/C=C/C=C/C=C/[C@H](O[C@@H]2O[C@H](C)[C@@H](O)[C@H](N)[C@@H]2O)C[C@@H]2O[C@](O)(C[C@@H](O)C[C@H]3O[C@@H]3/C=C/C(=O)O1)C[C@H](O)[C@H]2C(=O)O [Natamycin, natamycin]
  Observed antifungal activity O (%): 0%
